Several values for one entry are separate records, joined by “and”; a condition that tells them apart may be missing. Identical values can stand only once. Numbered stars: 1 amine (or outer) side, 2 acyl side, 3 side chain; on linkers, the order of the positions; unused ones are H or OH. Peptide text beside a SMILES is read from it. * marks the point of attachment. C22 diacid = O=C(O)CCCCCCCCCCCCCCCCCCCCC(=O)*; C20 diacid = O=C(O)CCCCCCCCCCCCCCCCCCC(=O)*; C18 diacid = O=C(O)CCCCCCCCCCCCCCCCC(=O)*; γGlu = O=C(O)[C@H](CCC(=O)[*:2])N[*:1]; AEEA = NCCOCCOCC(=O)O
How the values were obtained:
[1] = biological target: T1, calcitonin receptor (hCTR) (Homo sapiens, UniProt P30988); assay: Calcitonin receptor agonism, CRE-luciferase assay in stably transfected CHO-K1/CALCR/Ga15 cells; assay type: cell-based; conditions: incubation of 24 hours; Table 4; read-out: EC50, activity against the calcitonin receptor in cells
T1 construct: host or cells: CHO-K1/CALCR/Ga15 cells, further stably transfected with a CRE-luciferase plasmid
T1 sequence (P30988 25-474): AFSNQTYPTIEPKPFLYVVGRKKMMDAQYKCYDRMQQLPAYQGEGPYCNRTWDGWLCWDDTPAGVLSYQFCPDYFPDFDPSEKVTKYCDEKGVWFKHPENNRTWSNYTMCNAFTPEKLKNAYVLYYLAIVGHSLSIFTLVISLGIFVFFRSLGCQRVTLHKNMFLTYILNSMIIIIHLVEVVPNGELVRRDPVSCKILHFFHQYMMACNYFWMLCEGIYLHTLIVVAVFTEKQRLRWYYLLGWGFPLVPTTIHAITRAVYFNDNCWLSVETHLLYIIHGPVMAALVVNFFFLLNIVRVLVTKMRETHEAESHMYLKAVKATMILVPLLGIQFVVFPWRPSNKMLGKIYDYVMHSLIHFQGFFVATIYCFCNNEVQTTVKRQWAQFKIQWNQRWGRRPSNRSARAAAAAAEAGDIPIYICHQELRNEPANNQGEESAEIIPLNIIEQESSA
Procedure: Using the standard protocol, CHO-K1/CALCR/Ga15 cells (purchased from GenScript, with the calcitonin receptor constructed already) were transfected with a plasmid containing a luciferase expression cassette driven by multiple copies of cAMP response elements (CREs). The cells were cultured in an F12 medium containing 200 ug/mL Zeocin, 2 ug/mL puromycin, and 100 ug/mL hygromycin to afford a stably transfected calcitonin receptor/CRE-luc cell line.
(§1) To each well of a white 96-well plate was added 50 μL of the tested sample solution at a respective concentration.
The stably transfected calcitonin receptor/CRE-luc CHO cells were resuspended in the growth medium at a certain density, and 50 μL of the cell suspension was added at a density of about 20,000 cells per well to the white 96-well plate containing the tested sample solution. After incubation of 24 hours at 37° C. and 5% CO2, 100 μL of a Luciferase substrate was added to each well, incubated for 3 minutes, and finally was tested for luminescence on SpectraMax L (Molecular Devices) with the software SoftMax Pro 7.0.3 GxP. A standard curve was plotted using the fluorescent intensities for calculation of EC50.

[2] = Heat accelerated stability assay of polypeptide solutions (40° C., pH about 7.4), reversed phase chromatography; assay type: physicochemical; conditions: 40° C.; for Concentration change on 7 d / Concentration change on 26 d: pH about 7.4, 1 mg/mL; for Concentration change on 7 d / Purity change on 7 d: Day 7; for Concentration change on 26 d / Purity change on 26 d: Day 26; for Purity change on 7 d / Purity change on 26 d: reversed phase chromatography 214 nm; for Purity change on 7 d: purity on 7 d − purity on 0 d; for Purity change on 26 d: purity on 26 d − purity on 0 d
Procedure: A stability test chamber (BINDER GmbH), a 0.01 mg-readability balance (METTLER TOLEDO), a pH meter (METTLER TOLEDO), a biosafety cabinet (ESCO), T2G-II small-sized motor-driven capping machine (Changsha zhongya pharmaceutical equipment co. LTD), a high-speed refrigerated centrifuge (Eppendorf), a sterilizer cabinet (Shinva Medical), Agilent 1260 high-performance liquid chromatographer, and Sepax Bio-C18 4.6*250 mm 3 μm 200 Å reversed phase column were used.
Reagents and consumables included: ultrapure water (18.2 MΩ, self-made), acetonitrile (HPLC grade), trifluoroacetic acid (HPLC grade), sodium dihydrogen phosphate (pharmaceutical grade, Hunan Jiudian Hongyang Pharmaceutical Co., Ltd), hydrochloric acid (pharmaceutical grade, Hunan Er-Kang Pharmaceutical Co., Ltd), sodium hydroxide (Analytical Reagent grade, Hushi®, Sinopharm Chemical Reagent Co., Ltd), vials, rubber stoppers, disposable syringes, and sterile filters.
The lyophilized powder (1 mg/mL) of the polypeptide derivative prepared in accordance with the method of Example 1 was mixed with sodium dihydrogen phosphate (1.42 mg/mL) and dissolved in ultrapure water in the indicated mass-volume ratios. After adjusting pH to about 7.4 with hydrochloric acid/sodium hydroxide, the solution was filtered into a sterilized vial in a clean bench using a 0.22 μm sterile filter. The vial was then capped and placed into the stability test chamber at 40° C. Detections were made on Days 7 (7d) and 26 (26d), and during the assay, changes in the characteristics and properties of the polypeptide were observed and recorded. The sample was then centrifuged for 3 min at 10,000 rpm at 4° C., and the supernatant was transferred to a liquid phase sample vial for detecting the concentration and purity of the polypeptides using liquid phase chromatography described as below, wherein the concentration of the polypeptide=peak area/injection volume/extinction coefficient/60×flow rate, and the purity of the polypeptide=target peak area/total peak area×100%.
Conditions of the reversed phase chromatography Flow rate: 1.0 ml/min; Autosampler temperature: 15° C.; Column temperature: 25° C.; Detection wavelengths: 280 nm and 214 nm; Mobile phase A: 100% H2O+0.05% TFA; Mobile phase B: 100% ACN; and Gradient of elution listed in Table 6: […]

amylin receptor (hAMY3R) = biological target: T2, amylin receptor (hAMY3R) (Homo sapiens, UniProt O60896+P30988); assay: Amylin receptor agonism testing, CRE-luciferase assay in stably transfected CHO-K1/Ga15/AMY3 cells; assay type: cell-based; conditions: incubation of 24 hours; Table 3; read-out: EC50, activity against the amylin receptor in cells
T2 construct: host or cells: CHO-K1/Ga15/AMY3 cells, further stably transfected with a CRE-luciferase plasmid
T2 sequence (P30988 25-474): T1 sequence (P30988 25-474)
T2 sequence (O60896 24-148): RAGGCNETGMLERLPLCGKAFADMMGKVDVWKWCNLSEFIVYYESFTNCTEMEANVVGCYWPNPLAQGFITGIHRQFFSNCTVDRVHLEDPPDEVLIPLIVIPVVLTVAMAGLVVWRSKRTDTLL
Excerpt: The objective of this assay is to test the potency of the polypeptide derivatives in the present application on amylin and calcitonin receptors in vitro using a luciferase assay.
Using the standard protocol for construction of an amylin receptor/CRE-luc cell line, CHO-K1/Ga15/AMY3 cells (purchased from GenScript, with the calcitonin receptor and the receptor activity modifying peptide (RAMP) constructed already) were transfected with a plasmid containing a luciferase expression cassette driven by multiple copies of cAMP response elements (CREs). The cells were cultured in an F12 medium containing 200 ug/mL Zeocin, 2 ug/mL puromycin, 100 ug/mL hygromycin, and 400 ug/mL G418 to afford a stably transfected amylin receptor/CRE-luc cell line.
as §1
The stably transfected amylin receptor/CRE-luc CHO cells were resuspended in the growth medium at a certain density, and 50 μL of the cell suspension was added at a density of about 20,000 cells per well to the white 96-well plate containing the tested sample solution. After incubation of 24 hours at 37° C. and 5% CO2, 100 μL of a Luciferase substrate was added to each well, incubated for 3 minutes, and finally was tested for luminescence on SpectraMax L (Molecular Devices) with the software SoftMax Pro 7.0.3 GxP. A standard curve was plotted using the fluorescent intensities for calculation of EC50.

| Compound | EC50 [1] | Concentration change on 7 d [2] | Concentration change on 26 d [2] | Purity change on 7 d [2] | Purity change on 26 d [2] | EC50 (amylin receptor (hAMY3R)) |
| --- | --- | --- | --- | --- | --- | --- |
| CC(C)C[C@H](NC(=O)[C@H](CCCNC(=N)N)NC(=O)CNC(=O)[C@H](CC(C)C)NC(=O)[C@@H](NC(=O)[C@H](C)NC(=O)[C@@H](NC(=O)[C@H](CO)NC(=O)[C@H](CC(C)C)NC(=O)[C@H](CCC(N)=O)NC(=O)[C@H](CO)NC(=O)[C@H](C)NC(=O)CC[C@H](NC(=O)CCCCCCCCCCCCCCCCCCCCC(=O)O)C(=O)O)[C@@H](C)O)C(C)C)C(=O)N[C@@H](CO)C(=O)N[C@@H](CC(=O)O)C(=O)N[C@@H](CCC(=O)O)C(=O)N[C@@H](CC(C)C)C(=O)N[C@@H](Cc1c[nH]cn1)C(=O)N[C@@H](CCCNC(=N)N)C(=O)N[C@@H](CC(C)C)C(=O)N[C@@H](CCC(N)=O)C(=O)N[C@@H](CC(=O)O)C(=O)N[C@@H](Cc1ccc(O)cc1)C(=O)N1CCC[C@H]1C(=O)N[C@@H](CCCNC(=N)N)C(=O)N[C@H](C(=O)N[C@@H](CC(=O)O)C(=O)N[C@H](C(=O)NCC(=O)N[C@@H](CO)C(=O)NCC(=O)N[C@@H](CO)C(=O)N1CCC[C@H]1C(N)=O)C(C)C)[C@@H](C)O [M7] ({C22 diacid-γGlu}-ASQLSTAVLGRLSDELHRLQDYPRTDVGSGSP-NH2) | 0.194 nM | No change (concentration change of less than 1% (denoted as “no change”)) | No change (concentration change of less than 1% (denoted as “no change”)) | No change | nearly no noticeable change in purity |  |
| CC(C)C[C@H](NC(=O)[C@H](CCCNC(=N)N)NC(=O)CNC(=O)[C@H](CC(C)C)NC(=O)[C@@H](NC(=O)[C@H](C)NC(=O)[C@@H](NC(=O)[C@H](CO)NC(=O)[C@H](CC(C)C)NC(=O)[C@H](CCC(N)=O)NC(=O)[C@H](CO)NC(=O)[C@H](C)NC(=O)[C@H](CCC(=O)O)NC(=O)CCCCCCCCCCCCCCCCCCC(=O)O)[C@@H](C)O)C(C)C)C(=O)N[C@@H](CO)C(=O)N[C@@H](CC(=O)O)C(=O)N[C@@H](CCC(=O)O)C(=O)N[C@@H](CC(C)C)C(=O)N[C@@H](Cc1c[nH]cn1)C(=O)N[C@@H](CCCNC(=N)N)C(=O)N[C@@H](CC(C)C)C(=O)N[C@@H](CCC(N)=O)C(=O)N[C@@H](CC(=O)O)C(=O)N[C@@H](Cc1ccc(O)cc1)C(=O)N1CCC[C@H]1C(=O)N[C@@H](CCCNC(=N)N)C(=O)N[C@H](C(=O)N[C@@H](CC(=O)O)C(=O)N[C@H](C(=O)NCC(=O)N[C@@H](CO)C(=O)NCC(=O)N[C@@H](CO)C(=O)N1CCC[C@H]1C(N)=O)C(C)C)[C@@H](C)O [M10] ({C20 diacid}-EASQLSTAVLGRLSDELHRLQDYPRTDVGSGSP-NH2) |  | −2.290% | −10.562% | −1.66% | −5.98% |  |
| CC(C)C[C@H](NC(=O)[C@H](CCCNC(=N)N)NC(=O)CNC(=O)[C@H](CC(C)C)NC(=O)[C@@H](NC(=O)[C@H](C)NC(=O)[C@@H](NC(=O)[C@H](CO)NC(=O)[C@H](CC(C)C)NC(=O)[C@H](CCC(N)=O)NC(=O)[C@H](CO)NC(=O)[C@H](C)NC(=O)COCCOCCNC(=O)COCCOCCNC(=O)COCCOCCNC(=O)COCCOCCNC(=O)COCCOCCNC(=O)COCCOCCNC(=O)COCCOCCNC(=O)COCCOCCNC(=O)CC[C@H](NC(=O)CCCCCCCCCCCCCCCCCCC(=O)O)C(=O)O)[C@@H](C)O)C(C)C)C(=O)N[C@@H](CO)C(=O)N[C@@H](CC(=O)O)C(=O)N[C@@H](CCC(=O)O)C(=O)N[C@@H](CC(C)C)C(=O)N[C@@H](Cc1c[nH]cn1)C(=O)N[C@@H](CCCNC(=N)N)C(=O)N[C@@H](CC(C)C)C(=O)N[C@@H](CCC(N)=O)C(=O)N[C@@H](CC(=O)O)C(=O)N[C@@H](Cc1ccc(O)cc1)C(=O)N1CCC[C@H]1C(=O)N[C@@H](CCCNC(=N)N)C(=O)N[C@H](C(=O)N[C@@H](CC(=O)O)C(=O)N[C@H](C(=O)NCC(=O)N[C@@H](CO)C(=O)NCC(=O)N[C@@H](CO)C(=O)N1CCC[C@H]1C(N)=O)C(C)C)[C@@H](C)O [M21] ({C20 diacid-γGlu-AEEA-AEEA-AEEA-AEEA-AEEA-AEEA-AEEA-AEEA}-ASQLSTAVLGRLSDELHRLQDYPRTDVGSGSP-NH2) |  | −1.388% | −4.522% | −1.66% | −2.01% | 0.044 nM |
| CC(C)C[C@H](NC(=O)[C@H](CCCNC(=N)N)NC(=O)CNC(=O)[C@H](CC(C)C)NC(=O)[C@@H](NC(=O)[C@H](C)NC(=O)[C@@H](NC(=O)[C@H](CO)NC(=O)[C@H](CC(C)C)NC(=O)[C@H](CCC(N)=O)NC(=O)[C@H](CO)NC(=O)[C@H](C)NC(=O)COCCOCCNC(=O)COCCOCCNC(=O)CC[C@H](NC(=O)CCCCCCCCCCCCCCCCC(=O)O)C(=O)O)[C@@H](C)O)C(C)C)C(=O)N[C@@H](CO)C(=O)N[C@@H](CC(=O)O)C(=O)N[C@@H](CCC(=O)O)C(=O)N[C@@H](CC(C)C)C(=O)N[C@@H](Cc1c[nH]cn1)C(=O)N[C@@H](CCCNC(=N)N)C(=O)N[C@@H](CC(C)C)C(=O)N[C@@H](CCC(N)=O)C(=O)N[C@@H](CC(=O)O)C(=O)N[C@@H](Cc1ccc(O)cc1)C(=O)N1CCC[C@H]1C(=O)N[C@@H](CCCNC(=N)N)C(=O)N[C@H](C(=O)N[C@@H](CC(=O)O)C(=O)N[C@H](C(=O)NCC(=O)N[C@@H](CO)C(=O)NCC(=O)N[C@@H](CO)C(=O)N1CCC[C@H]1C(N)=O)C(C)C)[C@@H](C)O [M22] ({C18 diacid-γGlu-AEEA-AEEA}-ASQLSTAVLGRLSDELHRLQDYPRTDVGSGSP-NH2) |  |  | −5.493% | 2.59% | −2.19% | 0.015 nM |
| D2: SEQ ID NO. 5 CSNLSTCVLGKLSQELHKLQTYPRTNTGSGTP-NH2, no modification, no fatty acid [reference compound] |  | −40% and −40.064% |  |  |  |  |
| H-ASQLSTAVLGRLSQELHRLQDYPRTDVGSGSP-NH2 [M5] |  |  |  |  |  | 0.033 nM |
| M19: SEQ ID NO. 4 ASQLSTAVLGRLSDELHRLQDYPRTDVGSGSP-NH2, N terminus, C20 diacid + γGlu + 4 AEEAs ({C20 diacid-γGlu-AEEA-AEEA-AEEA-AEEA}-ASQLSTAVLGRLSDELHRLQDYPRTDVGSGSP-NH2) |  |  | −1.589% | No change | nearly no noticeable change in purity |  |
| M20: SEQ ID NO. 4 ASQLSTAVLGRLSDELHRLQDYPRTDVGSGSP-NH2, N terminus, C20 diacid + γGlu + 6 AEEAs ({C20 diacid-γGlu-AEEA-AEEA-AEEA-AEEA-AEEA-AEEA}-ASQLSTAVLGRLSDELHRLQDYPRTDVGSGSP-NH2) |  | No change (concentration change of less than 1% (denoted as “no change”)) | −3.662% | No change | −1.59% |  |
